Assay results published in US7348153B2, “Method for identifying and designing immunogenic peptides” (Health Research, Inc., priority 2004, dated 2008).
Marks after values point to notes of the source that are not given here.

What was measured:
Format in all cases: cell-based, human
[1] = system: PBMCs from melanoma patients; experiment: PBMC proliferation assay (tritiated thymidine incorporation); details: for stimulation index: both peptides
Procedure: For proliferation assays, PBMCs were cultured in tetra-triplicate in 96-well flat-bottomed microtiter plates (Costar Corp., Cambridge, Mass.) at the concentration of 2×10^5 cells/well in 100 μl of complete RPMI 1640 containing L-glutamine and 10% fetal bovine serum. […] PBMCs were cultured for 6 days at 37° C. in a 5% CO2 atmosphere before addition of tritiated thymidine at a concentration of 1 μCi/well. Results are expressed as cpm of tritiated thymidine incorporated and as a stimulation index (Hogan et al. J Immunol 1989; 142:2097-104). The latter is the average cpm of lymphocytes cultured with peptide divided by the average cpm of lymphocytes cultured without peptide. […] After 5 additional days of culture at 37° C. cells were washed, replated, and restimulated at a 1:1 stimulator to responder ratio with irradiated (30 Gy) autologous PBMC stimulators and peptides at concentrations of 5, 25, and 50 μg/ml. IL-2 was added after 96 h, and cells were cultured for an additional 5 days at 37° C., after which they were restimulated for an additional 10 days at 37° C. Lymphocytes stimulated over three cycles were collected and used as effectors in a cytotoxicity (CTL) assay.

[2] = system: PBMCs from melanoma patients; experiment: IFN-γ and IL-10 release by peptide-stimulated PBMC (double sandwich ELISA); details: for IL-10 levels after restimulation / IFN-γ levels: HLA-A2+ patient 6, 2° STIM, 25 μg/ml; for IFN-γ levels: comparison between peptides (P>0.05); for IFN-γ:IL-10 ratio: 2° STIM; for average IFN-γ levels after 2° STIM: peptides 25 μg/ml
Procedure: Interaction of T cells with Ag can induce a few cycles of division resulting in Ag-primed uncommitted T cells or can induce T cells to differentiate and gain effector function. The effector function is best characterized by the ability of Ag-stimulated T cells to secrete Th1 cytokines and to mediate lysis of specific targets. To determine whether T cells from immunized patients acquired cytokine effector function, IFN-γ and IL-10 were measured in supernatants harvested from PBMC cultures stimulated with I-100 and I-102 peptides. To measure cytokine release, supernatants were collected at 24, 48, and 72 h after primary and secondary stimulation with 5, 25, and 50 μg/ml of peptides and stored frozen at −20° C. IFN-γ and IL-10 levels were measured by a double sandwich ELISA using the corresponding kits supplied by Biosource International. Assays were calibrated with human recombinant IFN-γ and IL-10 to detect each cytokine in a range of 15-1000 pg/ml.
IL-10 was assayed instead of IL-4 as a representative Th2 cytokine, because the PBMCs used as responders were from patients with melanoma. Therefore, they might contain regulatory cells. Patient 6 had supernatants saved from two separate experiments. […] Because after priming, all of the stimulated PBMCs were expanded in IL-2, we determined the effect of culturing PBMCs in IL-2 on IFN-γ induction.

[3] = system: T2 cells pulsed with peptide; experiment: 51Cr release CTL assay against peptide-pulsed T2 cells; details: for lysis of T2-I-100 by peptide-stimulated CTL: immunized HLA-A2+ patients 1 and 6, E:T 30:1, 4 hour 51Cr release; for lysis of T2 cells pulsed with the stimulating peptide by peptide-stimulated CTL: nonimmunized HLA-A2+ patient 4, E:T 30:1, 4 hour; for lysis of T2-I-100 and T2-I-102 targets by peptide-stimulated lymphocytes: nonimmunized HLA-A2− patient 5
Excerpt: FIGS. 5A-5E are graphical representations of cytolytic activity of NP, I-100 and I-102-CTL from HLA-A2 immunized patients # 1 and # 6 (FIGS. 5A and 5B, respectively) and from HLA-A2, non-immunized patient # 4 (FIG. 5C) against T2-NP (▪) and T2-I-100 (□) targets. FIG. 5D depicts lytic activity of NP- and I-102-CTL from HLA-A2^− patient #3 against T2-NP (▪) and T2-I-100 (□) targets. FIG. 5E depicts CTL lysis by NP-, I-100-, and I-102-CTL effectors from […] patient #5 against T2-I-100 targets. The E:T ratio was 30:1 in a 4 hour 51Cr release assay; bars, ±S D.
For proliferation assays, PBMCs were cultured in tetra-triplicate in 96-well flat-bottomed microtiter plates (Costar Corp., Cambridge, Mass.) at the concentration of 2×10^5 cells/well in 100 μl of complete RPMI 1640 containing L-glutamine and 10% fetal bovine serum. Peptides I-100 and I-101 were added at 5, 25, and 50 μg/ml in serum-free RPMI 1640 up to a total volume of 200 μl. PBMCs were cultured for 6 days at 37° C. in a 5% CO2 atmosphere before addition of tritiated thymidine at a concentration of 1 μCi/well. Results are expressed as cpm of tritiated thymidine incorporated and as a stimulation index (Hogan et al. J Immunol 1989; 142:2097-104). The latter is the average cpm of lymphocytes cultured with peptide divided by the average cpm of lymphocytes cultured without peptide. […] Peptide-specific T cells were propagated by adding recombinant interleukin (IL)2 (90 IU/ml; Biosource International, Camarillo, Calif.) to PBMCs that had been cultured for 96 h at 37° C. with peptides. After 5 additional days of culture at 37° C. cells were washed, replated, and restimulated at a 1:1 stimulator to responder ratio with irradiated (30 Gy) autologous PBMC stimulators and peptides at concentrations of 5, 25, and 50 μg/ml. IL-2 was added after 96 h, and cells were cultured for an additional 5 days at 37° C., after which they were restimulated for an additional 10 days at 37° C. Lymphocytes stimulated over three cycles were collected and used as effectors in a cytotoxicity (CTL) assay.
(§1) To determine the effects of the immunization with […] on activation of melanoma cell-lytic CTLs, we compared the responses of immunized HLA-A2^+ patients 1 and 6 with that of nonimmunized HLA-A2^+ patient 4. As specificity and restriction control we analyzed the responses of nonimmunized HLA-A2^− patients 3 and 5. All of the CTLs were tested for their ability to lyse T2 cells pulsed with the stimulating peptide and A375sm melanoma cells. Lymphocytes collected after three rounds of peptide stimulation were tested for their ability to lyse ^51Cr-labeled targets as described previously (Fisk, et al. J Exp Med 1998;181:2109-17; Murray, et al. Clin Cancer Res 2002;11:3407-18). […] Cold target inhibition of tumor cell lysis experiments was performed as described (Murray, et al. Clin Cancer Res 2002;11:3407-18).

[4] = system: A375SM melanoma cells; experiment: 51Cr release CTL assay against A375SM melanoma cells; details: for lysis of A375SM cells by peptide-stimulated PBMCs: immunized HLA-A2+ patient 1
Procedure: NP-, I-100, and I-102 on the abscissa indicate corresponding CTL effectors. NP-CTL indicates CTL stimulated by T2 cells and IL-2 without addition of peptides. […] The E:T ratio was 20:1 in a 20 h ^51Cr release assay. FIG. 6C depicts the kinetics of A375SM melanoma cell lysis by NP-CTL (∘), I-100-CTL (●), and I-102-CTL (▴). CTL were incubated with target cells for up to 20 h.
as §1
To determine whether in vitro stimulation with peptides generated CTLs that recognized epitopes on HMW-MAA^+/HLA-A2^+ melanoma cells, PBMCs from immunized HLA-A2^+ patients 1 and 6 were stimulated with I-100 and 1-102 peptides and then tested for their ability to lyse A375SM melanoma cells. […] Therefore, these effectors were designated as I-100 CTL and I-102 CTL, respectively.

[5] = patient 8, −/+, 1° STIM up to 6 days
[6] = PBMCs from HLA-A2+ patient 6 and four HLA-A2− patients, preliminary experiments
[7] = HLA-A2+ patients 1, 2 and 6 immunized with MELIMMUNE
[8] = HLA-A2− patients 3, 5, 9 and 10 not immunized
[9] = patient 1, HLA-A2 phenotype/immunization +/+, 1° STIM up to 6 days
[10] = patient 2, +/+, 1° STIM up to 6 days
[11] = patient 3, HLA-A2 −, 1° STIM up to 6 days
[12] = patient 4, +/−, 1° STIM up to 6 days
[13] = patient 5, HLA-A2 −, 1° STIM up to 6 days
[14] = patient 6, +/+, 1° STIM up to 6 days
[15] = patient 7, −/+, 1° STIM up to 6 days
[16] = patient 9, −/−, 1° STIM up to 6 days
[17] = patient 10, −/−, 1° STIM up to 6 days

Row | Substance | tritiated thymidine incorporated [1, 5] [cpm] | IL-10 levels after restimulation [2] [pg/mL] | IFN-γ levels [2] | IFN-γ:IL-10 ratio ([2]; HLA-A2+ patients) | IFN-γ:IL-10 ratio ([2]; HLA-A2− patients) | IL-10 after 2° STIM ([2]; PBMCs from HLA-A2+ patients) [pg/mL] | average IFN-γ levels after 2° STIM ([2]; PBMCs from HLA-A2+ patients) [pg/mL] | IL-10 after 2° STIM ([2]; PBMCs from HLA-A2− patients) [pg/mL] | stimulation index [1, 7] | stimulation index [1, 8] | S.I. (stimulation index) [1, 9] | tritiated thymidine incorporated [1, 9] | S.I. (stimulation index) [1, 10] | S.I. (stimulation index) [1, 11] | S.I. (stimulation index) [1, 12] | S.I. (stimulation index) [1, 13] | S.I. (stimulation index) [1, 14] | tritiated thymidine incorporated [1, 14] | S.I. (stimulation index) [1, 15] | tritiated thymidine incorporated [1, 15] [cpm] | also measured
1 | E71: inactive HLA-A2 epitope from HER-2/neu protein, HER-2 (828-836) (QIAKGMSYL; UniProt P04626 828-836, looked up, fragment) [Peptide E71, reference compound] | 685±103 | – | – | – | – | – | – | – | – | – | – | – | – | – | – | – | – | – | – | – | tritiated thymidine incorporated ([1]; lymphocytes from HLA-A2+ immunized patients 1, 2 and 6 (NP=353±84 cpm)): 411±190 cpm
2 | LLQLYSGRL (human; HMW-MAA) [Peptide I-101] | – | – | – | – | – | – | – | – | – | – | – | – | – | – | – | – | – | – | – | – | stimulation of IFN-γ and IL-10 secretion [2, 6]: did not stimulate; stimulation of proliferation [1, 6]: did not stimulate
3 | LLVLLYSKL (mouse; mAb MF11-30) [Peptide I-100] | 490 ± 54 | 86 ± 11 | similar | 3.96 | 0.97 | 155.7 ± 36.3 | 616.1 ± 86.3 | 61.1 ± 25 | 2.7±0.7 | 1.2±0.4 | (2.5) | 1123 ± 240^a cpm | (3.3) | (1.1) | (1.5) | (1.7) | (3.1) | 1793 ± 58^a cpm | (1.1) | 652 ± 77 | IFN-γ and IL-10 levels ([2]; HLA-A2+ patient 6 and HLA-A2− patient 7, after 1° STIM): low; tritiated thymidine incorporated [1, 11]: 655 ± 51 cpm; S.I. (stimulation index) [1, 5]: (0.9); S.I. (stimulation index) [1, 16]: (0.7); tritiated thymidine incorporated [1, 16]: 334 ± 26 cpm; S.I. (stimulation index) [1, 17]: (0.9); tritiated thymidine incorporated [1, 17]: 184 ± 12 cpm; lysis of T2-I-100 by peptide-stimulated CTL [3]: to a significantly greater extent than control targets T2-NP; lysis of T2 cells pulsed with the stimulating peptide by peptide-stimulated CTL [3]: did not lyse T2-I-100; lysis of T2-I-100 and T2-I-102 targets by peptide-stimulated lymphocytes [3]: unable to specifically lyse; lysis of A375SM cells by peptide-stimulated PBMCs [4]: effectively lysed A375SM cells
4 | LLQLGYSGRL (designed peptide) [Peptide I-102] | 650 ± 31 | 212 ± 24 | similar | 3.96 | 0.97 | 155.7 ± 36.3 | 616.1 ± 86.3 | 61.1 ± 25 | 2.7±0.7 | 1.2±0.4 | (3.3) | 1519 ± 92^a cpm | (3.0) | (1.4) | (1.7) | (2.0) | (2.8) | 1464 ± 53^a cpm | (1.2) | 755 ± 56 | S.I. (stimulation index) [1, 5]: (1.2); S.I. (stimulation index) [1, 16]: (0.9); tritiated thymidine incorporated [1, 16]: 425 ± 40 cpm; S.I. (stimulation index) [1, 17]: (1.0; tritiated thymidine incorporated [1, 17]: 200 ± 20 cpm; lysis of T2-I-100 by peptide-stimulated CTL [3]: to a significantly greater extent than control targets T2-NP; lysis of T2 cells pulsed with the stimulating peptide by peptide-stimulated CTL [3]: lysed T2-I-102; lysis of T2-I-102 targets by peptide-stimulated CTL ([3]; nonimmunized HLA-A2− patient 3, compared with T2-NP): no specific lysis; lysis of T2-I-100 and T2-I-102 targets by peptide-stimulated lymphocytes [3]: unable to specifically lyse; lysis of A375SM cells by peptide-stimulated PBMCs [4]: effectively lysed A375SM cells; increase of lysis of A375SM cells from 5 h to 20 h ([4]; peptide-stimulated CTL, kinetics of lysis): 59%
